Measurements reported in PMC7524759, “Solution structure of the Hop TPR2A domain and investigation of target druggability by NMR, biochemical and in silico approaches” (Scientific Reports, 2020).
“Also recorded” adds a separate entry of the source. Read-outs that look alike come from different tables or passages of the source.

Tests used:
[1] = target: T1, Hop TPR2A-Hsp90 MEEVD interaction (Homo sapiens, UniProt P31948); assay: LANCE (TR-FRET) proximity assay of Hop TPR2A binding to biotin-Hsp90 MEEVD peptide; conditions: for LE (ligand efficiency): approximated from LANCE IC50 values using number of heavy atoms
T1 construct: The TPR2A domain of human Hop, residues 218-350, was cloned from full-length Hop cDNA; made in house; host or cells: Escherichia coli BL21 (DE3) pLysS
Protocol: Compounds containing succinic acid substructures were therefore selected to mimic the natural carboxylate clamp interaction between the Hsp90 C-terminus and TPR cochaperones. […] In this assay, compounds that block the protein-peptide interaction cause a loss in fluorescent signal.
The labelling reagents used were Surelight APC-SA and LANCE Eu-1024 Anti-6xHis (both PerkinElmer). Assays were performed in black low volume 384-well plates (Corning) with a total volume of 20 μl per well in assay buffer of 20 mM HEPES pH 7.4, 100 mM NaCl, 1 mM DTT, 0.1% Tween-20. […] Compound stocks to be screened were individually corrected to approximately neutral pH due to their highly acidic nature and dispensed using a Labcyte Echo acoustic dispenser.
Raw fluorescence or luminescence values from compound screening were converted to % inhibition of the total assay signal. IC50 values were determined by plotting % inhibition against the log10 of inhibitor concentration and fitted using a variable slope, four-parameter concentration–response curve using a robust fit in GraphPad Prism. […] To generate IC50 values, assays were repeated independently 3 times with duplicate or triplicate wells for each run. […] Ligand efficiency (LE) was approximated from LANCE biochemical IC50 values using the number of heavy atoms (HA)[67].

Hop TPR2A = target: T2, Hop TPR2A (Homo sapiens, UniProt P31948); assay: NMR 1H-15N HSQC chemical shift perturbation (CSP) titration; type: binding; conditions: for Kd: Mean ± S.D. for 10 fitted residues
T2 construct: The TPR2A domain of human Hop, residues 218-350, was cloned from full-length Hop cDNA; 6xHis (N, cleaved yes); made in house; host or cells: Escherichia coli BL21 (DE3) pLysS
Protocol: Chemical shift perturbation (CSP) experiments were carried out on protein and compound mixtures to characterise protein–ligand interactions. ^1H-^15N HSQC spectra were collected on 200 μl samples in 20 mM Na2HPO4 pH 6.5, 50 mM NaCl, 1 mM DTT with 10% D2O in 3 mm NMR tubes (GPE Scientific). […] Each sample was prepared with 100 μM protein while compound or peptide concentration varied according to the experiment. Where possible, compound or peptide stocks were made up in NMR buffer to minimise buffer effects on the spectra. Compounds were otherwise diluted from DMSO stocks maintaining a maximum final DMSO concentration of 3% v/v. HSQC spectra of the protein with DMSO in the buffer were collected as controls. ^1H–^15N HSQC spectra were collected using standard pulse sequences.
Changes in chemical shifts (∆δ) were calculated for each backbone assigned N–H peak using a weighted CSP[70]. In order to visualise the locations of the largest shifts the ∆δ values were edited into a Hop TPR2A PDB file (in place of B-factors) and represented as surface heat maps in PyMol. Kd values from CSP titrations were calculated from HSQC spectra collected at a series of increasing compound concentrations[58], plots are representative of one titration for several different residues.
Chemical shift perturbation (CSP) experiments and Kd determination
Changes in chemical shifts were determined by tracking ligand shifted HSQC peaks in
NMRView and exporting the resultant peak lists to Excel. In Excel, using appropriate lists of
control peaks the change in chemical shift (Dd) was calculated for each backbone assigned
N-H peak using Equation S1.
(Equation S1) Δδ = %Δ𝛿!! + (0.2Δ𝛿#) -
Where Δ𝛿!! is the change in proton chemical shift, and Δ𝛿# is the change in nitrogen chemical
shift. Using a scaling factor (0.2) normalises the difference in magnitude of chemical shifts at
these two nuclei, various scaling factors are used in the literature and a value of 0.2 has been
To estimate Kd values from CSP titrations HSQC spectra were collected at a series of
increasing compound concentrations, peak lists for each concentration were generated and
exported to Excel. Then using GraphPad Prism the Dd values for each concentration were
fitted by non-linear regression to Equation S2, taken from Fielding 2007 equation 16 (see also
Williamson 2013 equation 6 for the derivation).
(Equation S2) Δ𝛿 = Δ𝛿&’( "[0]
In which Δ𝛿 is the adjusted chemical shift change, Δ𝛿&’( is the chemical shift change at
saturation, [𝑃]7 the total protein concentration, 𝐾8 the equilibrium dissociation constant, and
[𝐿]7the total ligand concentration. Here the Δ𝛿&’( was taken to be the observed Δ𝛿 at the
highest [𝐿]7. Except in cases where this was clearly far from saturation, when this variable
was not constrained during the curve fit.
Determining dissociation constants using CSP titrations requires that the experimental [P] is
high enough that the signal to noise of the experiment is sufficient while falling into a suitable
range for accurate curve fitting using equation S2.

[2] = test system: FLAG-tagged Hsp90 complexes (TPR cochaperone association) from HCT116 cells; assay: FLAG co-immunoprecipitation Western blot of Hsp90 complexes; type: biochemical, human
Hsp90 (Homo sapiens) = assay: ITC; conditions: cited from earlier work
[3] = n = 3 independent experiments, duplicate wells, Mean ± S.D.

T1 sequence (P31948 218-350): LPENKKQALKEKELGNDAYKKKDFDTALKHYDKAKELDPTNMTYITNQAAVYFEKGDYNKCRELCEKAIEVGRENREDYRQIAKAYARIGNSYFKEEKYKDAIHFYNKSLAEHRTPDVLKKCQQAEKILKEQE
T2 sequence (P31948 218-350): as above
Hop TPR2A (from UniProt P31948), sequence (P31948 223-352): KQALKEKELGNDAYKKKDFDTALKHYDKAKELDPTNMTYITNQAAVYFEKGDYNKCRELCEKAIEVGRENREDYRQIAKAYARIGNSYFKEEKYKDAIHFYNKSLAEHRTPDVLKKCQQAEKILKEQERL

Row | Molecule | LE (ligand efficiency) [1] | IC50 [1, 3] | Kd (Hop TPR2A) | further results
1 | O=C(O)/C=C\C(=O)O [Compound 2] | 0.47 | 2170 µM |  | 
2 | Cc1ccc(C2c3[nH]c4ccccc4c3CC3C(=O)N(c4ccccc4C(=O)O)C(=O)N32)cc1 (stereo not shown) [Compound 10] | 0.15 | 234 ± 75 µM | 729 ± 164 µM | 
3 | COc1cccc(C2c3[nH]c4ccccc4c3CC3C(=O)N(c4ccc(C(=O)O)cc4)C(=O)N32)c1 (stereo not shown) [Compound 13] | 0.12 | 1180 µM |  | drop in LANCE activity compared to 11 ([1]; carboxylic acid at R2 moved from ortho to para): more than tenfold drop in activity
4 | Hop TPR2A (from UniProt P31948) |  |  |  | Kd (Hsp90 (Homo sapiens)): 11 µM

Further molecules by falling IC50 [1, 3], results first:

Row | LE (ligand efficiency) [1] | IC50 [1, 3] | Kd (Hop TPR2A) | Molecule | further results
5 | 0.42 | 3960 µM |  | O=C(O)CCC(=O)O [Compound 1, succinic acid] | IC50 [1]: ~4000 µM
6 | 0.14 | 452 ± 14 µM | 1410 µM | O=C(O)c1ccccc1N1C(=O)C2Cc3c([nH]c4ccccc34)C(c3ccccc3)N2C1=O (stereo not shown) [Compound 9] | 
7 | 0.13 | 311 ± 37 µM |  | COc1cccc(C2c3[nH]c4ccccc4c3CC3C(=O)N(c4ccccc4C(=O)NCC(=O)O)C(=O)N32)c1 (stereo not shown) [Compound 8] | 
8 | 0.17 | 94 ± 6.4 µM | 352 ± 39 µM | Cc1ccccc1C1c2[nH]c3ccccc3c2CC2C(=O)N(c3ccccc3C(=O)O)C(=O)N21 (stereo not shown) [Compound 12] | 
9 | 0.17 | 80 ± 5.8 µM | 177 ± 13 µM | Cc1cccc(C2c3[nH]c4ccccc4c3CC3C(=O)N(c4ccccc4C(=O)O)C(=O)N32)c1 (stereo not shown) [Compound 11] | CSP ∆δ (Hop TPR2A; residue Arg305): 0.38 ppm; CSP ∆δ (Hop TPR2A; residue Asn264): 0.36 ppm; CSP ∆δ (Hop TPR2A; residue Asn308): 0.12 ppm; CSP ∆δ (Hop TPR2A; residue Lys301): 0.1 ppm; TPR cochaperone association with Hsp90 complexes ([2]; added to HCT116 cell lysate, N = 1, qualitative): not; TPR cochaperone association with Hsp90 complexes ([2]; added to purified Hsp90 complexes, N = 1, preliminary, qualitative): reduce TPR cochaperone association; also recorded: may disrupt binding of Hop and another TPR cochaperone, PP5
10 | 0.13 | 74 ± 3.2 µM |  | COc1ccc(C2c3[nH]c4ccccc4c3CC3C(=O)N(c4ccccc4C(=O)NC(CC(=O)O)C(=O)O)C(=O)N32)cc1 (stereo not shown) [Compound 7] | 
